This is an account of results in patent US20230115515A1, “PYRAZOLYLPROPANAMIDE COMPOUNDS AND USES THEREOF FOR TREATMENT OF PROSTATE CANCER” (priority 2020, published 2023).

As usually defined, the pIC50 is the negative decadic logarithm of the IC50, by convention in mol/L. In general, pKi refers to the Ki on a negative log10 scale, so that one unit is a factor of ten.

Data set [1] can be described thus: Metabolic stability in rat liver microsomes (phase I and II). As to conditions: for half-life at 1 µM: read-out: RLM T1/2. It counts as in vitro ADME. For orientation: Liver microsomes are a subcellular fraction often used to study metabolism.
The next data set in a line: in vitro. As to conditions: mouse, microsomes, pH 7.5.
Data set [2] can be described thus: Metabolic stability in human liver microsomes (phase I and II). It is filed as in vitro ADME.
Data set [3] has as its system ventral prostate (VP) and seminal vesicle (SV) weights. Kind of data set: Hershberger assay in intact rats. It counts as in vivo, rat. The method, then: FIGS. 7A and 7B depict that SARDs and pan-antagonists inhibited androgen-dependent organs in rats. FIGS. 7 A and 7B show the reduction of VP and SV weights following the treatment of intact rats with 20 mg/kg (mpk) po daily of antagonist or vehicle for 14 days (n=5/group). Rats were sacrificed at the end of the treatment period and weights of prostate and SVs were measured and normalized to body weight.
Male rats (6-8 weeks old) were randomized into groups based on body weight. Animals were sacrificed, prostate and seminal vesicles were weighed, and organ weights were normalized to body weight. Male rats (n=5/group) were left intact, for […]. […] Organ weights were normalized to body weight. […] The goal of the experiments was to find compounds with in vivo antiandrogen efficacies greater than 10.
Hershberger Assays. […] Rat ventral prostate (VP), seminal vesicle (SV), and levator ani (LA) muscle are AR-dependent tissues whose size (reflected by their weight) responds rapidly to castration.
Traditionally, agonists are dosed to prevent (whereby agonist is given upon castration) or restore (agonist is given after tissue atrophies) anabolic tissue weights [LA or other skeletal muscles and bone (the latter takes months not days to atrophy and restore)] to intact levels or greater, without increasing androgenic tissue (SV or VP) weights back to intact levels. […]

Data set [4] has as its system Enzalutamide resistant VCaP (MDVR VCaP) xenograft. The data set is described as follows: Enz-R (MDVR) VCaP xenograft in intact SRG rats. It is filed as in vivo, rat. The note with it: 10 mg/kg po daily, FIG. 8B.
The next data set concerns the target CMV-hAR (Homo sapiens, UniProt P10275). The data set is described as follows: cell-based. As to conditions: read-out: Wt. IC50.
The target in another data set is T1, hAR-LBD (633-919) (Homo sapiens, UniProt P10275).
T1 sequence (P10275 633-919): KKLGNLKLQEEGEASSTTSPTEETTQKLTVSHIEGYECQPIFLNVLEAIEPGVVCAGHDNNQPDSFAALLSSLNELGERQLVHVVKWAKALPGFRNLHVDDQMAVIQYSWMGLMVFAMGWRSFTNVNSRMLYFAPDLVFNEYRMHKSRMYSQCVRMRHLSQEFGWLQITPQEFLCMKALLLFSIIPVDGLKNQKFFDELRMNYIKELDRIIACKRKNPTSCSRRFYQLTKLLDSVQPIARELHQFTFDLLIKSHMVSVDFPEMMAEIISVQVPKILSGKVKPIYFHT
Kind of data set: Ligand binding assay (Ki), [3H]mibolerone competition (Table A).

The target in data set [5] is recombinant LBD of wildtype AR (wtAR). The note with it: read-out: Binding Ki; cited from earlier work.
Data set [6] relates to AR and AR-V7-positive 22RV1 xenograft. The data set is described as follows: 22RV1 xenograft in NSG mice. It is filed as in vivo, mouse.
In the next data set the test system is UT-1355 TNBC PDX. The data set is described as follows: TNBC patient-derived xenograft UT-1355 in NSG mice. It counts as in vivo, mouse. The note with it: for tumor volume at end: in mm³ (unit assumed). In general terms: In xenograft studies the graft and the host belong to different species.
Data set [7] concerns Enzalutamide resistant VCaP (MDVR VCaP) xenograft. The note with it: cited from earlier work.
Data set [8] concerns FKBP5 gene expression in LNCaP cells. The data set is described as follows: AR-target gene (FKBP5) expression in LNCaP cells, real-time PCR. It is filed as cell-based, human. As to conditions: R1881-induced, FIG. 3. For orientation: Quantitative PCR measures a nucleic acid by following its amplification.
A short description of data set [9]: Metabolic stability in mouse liver microsomes (phase I and II).
Data set [10] is described as follows: In vivo lethality observation. The note with it: 5 mg/kg.
The mark [11] stands for this setting: rat, microsomes, pH 7.5, cofactors for phases I and II.
[12] abbreviates: pH 7.5, MLM T1/2 (min), co-factors for phases I and II.

pIC50, pKi: −log10 of the molar value.

CMV-hAR, sequence (P10275 whole entry, the tested form may be a part): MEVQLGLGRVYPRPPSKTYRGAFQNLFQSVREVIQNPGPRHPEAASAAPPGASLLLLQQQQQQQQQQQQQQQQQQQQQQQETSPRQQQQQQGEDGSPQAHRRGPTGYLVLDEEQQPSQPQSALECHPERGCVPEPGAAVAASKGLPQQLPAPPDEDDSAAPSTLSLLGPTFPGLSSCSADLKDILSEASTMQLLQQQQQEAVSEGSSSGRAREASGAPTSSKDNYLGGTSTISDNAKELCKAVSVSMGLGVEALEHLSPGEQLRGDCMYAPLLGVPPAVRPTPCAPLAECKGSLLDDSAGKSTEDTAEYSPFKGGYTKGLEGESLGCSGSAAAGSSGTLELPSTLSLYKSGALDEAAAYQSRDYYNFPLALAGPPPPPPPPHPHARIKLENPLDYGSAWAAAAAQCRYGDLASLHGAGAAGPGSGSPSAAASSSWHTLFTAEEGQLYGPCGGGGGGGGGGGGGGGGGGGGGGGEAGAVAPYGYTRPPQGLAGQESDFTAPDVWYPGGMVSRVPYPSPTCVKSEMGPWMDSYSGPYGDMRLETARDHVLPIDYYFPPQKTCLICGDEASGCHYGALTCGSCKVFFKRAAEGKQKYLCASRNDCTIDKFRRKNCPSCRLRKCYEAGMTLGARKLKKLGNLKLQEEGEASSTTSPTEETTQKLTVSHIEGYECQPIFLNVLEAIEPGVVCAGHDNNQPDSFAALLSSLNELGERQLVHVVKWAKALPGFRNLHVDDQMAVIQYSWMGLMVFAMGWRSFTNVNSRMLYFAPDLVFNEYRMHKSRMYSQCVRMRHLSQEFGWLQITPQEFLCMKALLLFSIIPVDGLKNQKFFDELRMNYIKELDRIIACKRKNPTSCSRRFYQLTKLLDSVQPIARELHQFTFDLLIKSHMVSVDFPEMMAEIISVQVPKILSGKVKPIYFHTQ

For `C[C@](O)(Cn1cc(F)cn1)C(=O)Nc1cnc(C#N)c(C(F)(F)F)c1` [Compound 21a], in data set [1] (rat, microsomes, 1 µM, pH 7.5), the “RLM CLint” value turned out to be 0 µL/min/mg. This compound also had a half-life at 1 µM in “in vitro” of at least 0.807 h. In addition, in data set [2] (1 µM, pH 7.5), the “HLM CLint” value is 0 µL/min/mg.
`C[C@](O)(Cn1cc(Br)c(F)n1)C(=O)Nc1ccc(C#N)c(C(F)(F)F)c1` [Compound 26a, (S)-3-(4-Bromo-3-fluoro-1H-pyrazol-1-yl)-N-(4-cyano-3-(trifluoromethyl)phenyl)-2-hydroxy-2-methylpropanamide]: the half-life at 1 µM in data set [1] (setting [11]) was above 2 h; in [2] (pH 7.5, cofactors for phases I and II, read-out: HLM T1/2) it was above 2 h. This compound had an SV weight reduction in data set [3] (20 mg/kg po daily, intact rats, FIG. 7B) of around 50%. Also, the “tumor weights at the end of the study” value in data set [4] was “significant inhibition”.
Consider `C[C@](O)(Cn1cc(-c2ccc(C#N)cc2)nn1)C(=O)Nc1ccc(C#N)c(C(F)(F)F)c1` [Compound 29o, (S)—N-(4-Cyano-3-(Trifluoromethyl)Phenyl)-3-(4-(4-Cyanophenyl)-1H-1,2,3-Triazol-1-Yl)-2-Hydroxy-2-Methylpropanamide], for which the pIC50 at CMV-hAR was 7.21. Besides, the pKi on hAR-LBD (633-919) was 5.82.
`Cc1c(NC(=O)[C@@](C)(O)Cn2cc(C#N)cn2)ccc(C#N)c1Cl` [Compound 29k, (S)—N-(3-Chloro-4-Cyano-2-Methylphenyl)-3-(4-Cyano-1H-Pyrazol-1-Yl)-2-Hydroxy-2-Methylpropanamide]: the pIC50 on CMV-hAR is 5.77.
On to `CC(O)c1cc(C(=O)N[C@@H](C)Cn2ccc(-c3ccc(C#N)c(Cl)c3)n2)[nH]n1` (some centres unmarked) [6 (darolutamide), darolutamide], for which, in data set [5], the pKi is 7.96.
With `C[C@](O)(Cn1cc(C#N)cn1)C(=O)Nc1ccc(C#N)cc1Cl` [Compound 29j, (S)—N-(2-chloro-4-cyanophenyl)-3-(4-cyano-1H-pyrazol-1-yl)-2-hydroxy-2-methylpropanamide], the pIC50 at CMV-hAR is 5.95.
Consider `C[C@](O)(Cn1cc(C#N)cn1)C(=O)Nc1cnc(C#N)c(C(F)(F)F)c1` [Compound 21c, (S)-3-(4-Cyano-1H-pyrazol-1-yl)-N-(6-cyano-5-(trifluoromethyl)pyridin-3-yl)-2-hydroxy-2-methylpropanamide], for which, in data set [6] (oral, NSG mice), the “tumor volume at end” value amounted to 1205 mm^3 and the “tumor volume at start” value is reported as 301 mm^3. For the same compound, in [6] (oral, NSG mice, FIGS. 11A-11B), the “tumor volume inhibition (maximum)” value amounted to 63%. Further, in the data set with UT-1355 TNBC PDX (60 mpk 21c, 10 60 mpk b.i.d), the “growth inhibition of UT-1355 PDX” value is on record as “significantly inhibited the growth”, the tumor volume at start was determined as 227 mm³ and the “tumor volume at end” value is listed as 331.
Consider `CNC(=O)c1ccc(N2C(=S)N(c3ccc(C#N)c(C(F)(F)F)c3)C(=O)C2(C)C)cc1F` [4 (enzalutamide), enzalutamide, reference compound], for which the “effect in MDVR VCaP xenograft” value in data set [7] (not shown, previously published) is given as “failed to durably achieve any effect”. Besides, the “inhibition of FKBP5 expression” value in [8] is recorded as “also inhibited expression of the FKBP5 but at a slightly lower potency”. For the same compound, the “time to euthanasia criteria (Kaplan-Meier)” value in data set [6] (length>2 cm or volume>2000 mm^3, FIG. 12) is “reached euthanasia criteria earlier than the animals treated with 21c”; in the data set with UT-1355 TNBC PDX (enzalutamide 60 mpk, FIG. 15) it was “reached euthanasia criteria earlier than the animals treated with 21c”. Besides, in data set [6] (oral, NSG mice), the “effect on 22RV1 xenograft growth” value is “failed to inhibit the growth”.
Regarding `C[C@@](O)(Cn1cc(F)cn1)C(=O)Nc1ccc(C#N)c(C(F)(F)F)c1` [Compound 29a, (R)—N-(4-Cyano-3-(trifluoromethyl)phenyl)-3-(4-fluoro-1H-pyrazol-1-yl)-2-hydroxy-2-methylpropanamide], the half-life at 1 µM in [9] (pH 7.5) was at least 0.807 h.
For `C[C@](O)(Cn1cc(Cl)cn1)C(=O)Nc1ccc(C#N)c(C(F)(F)F)c1` [Compound 16c, (S)-3-(4-Chloro-1H-pyrazol-1-yl)-N-(4-cyano-3-(trifluoromethyl)phenyl)-2-hydroxy-2-methylpropanamide], the “RLM T1/2” value in data set [1] (cofactors for phases I and II) was above 2 h. For the same compound, the half-life at 1 µM in data set [1] (setting [11]) is above 2 h.
With `C[C@](O)(Cn1ccc(C(F)(F)F)n1)C(=O)Nc1ccc(C#N)c(C(F)(F)F)c1` [Compound 16h, (S)—N-(4-Cyano-3-(trifluoromethyl)phenyl)-2-hydroxy-2-methyl-3-(3-(trifluoromethyl)-1H-pyrazol-1-yl)propanamide], in [9] (setting [12]), the half-life at 1 µM was at least 0.807 h.
As for `C[C@](O)(Cn1cc(C(F)(F)F)cn1)C(=O)Nc1ccc(C#N)c(C(F)(F)F)c1` [Compound 16g, (S)—N-(4-Cyano-3-(trifluoromethyl)phenyl)-2-hydroxy-2-methyl-3-(4-(trifluoromethyl)-1H-pyrazol-1-yl)propanamide], the half-life at 1 µM was above 2 h in [1] (setting [11]) and at least 0.807 h in [9] (setting [12]).
`C[C@](O)(Cn1cc(F)cn1)C(=O)Nc1ccc(C#N)c(C(F)(F)F)c1` [Compound 10, (S)—N-(4-Cyano-3-(trifluoromethyl)phenyl)-3-(4-fluoro-1H-pyrazol-1-yl)-2-hydroxy-2-methylpropanamide]: the “dose required to achieve similar results (TGI)” value in data set [7] (previously published for 10) was 20 to 30 mg/kg. Moreover, in the data set with UT-1355 TNBC PDX (60 mpk 21c, 10 60 mpk b.i.d), the tumor volume at start came to 427 mm³ and the “tumor volume at end” value came out at 1354.
In data set [9] (setting [12]), `C[C@](O)(Cn1cc(C#N)cn1)C(=O)Nc1ccc(C#N)c(C(F)(F)F)c1` [Compound 16i, (S)-3-(4-Cyano-1H-pyrazol-1-yl)-N-(4-cyano-3-(trifluoromethyl)phenyl)-2-hydroxy-2-methylpropanamide] registered a half-life at 1 µM of at least 0.807 h. Further, the “toxicity in 20 mg/kg fixed dose screening Hershberger” value in data set [3] (20 mg/kg, rats) is listed as “toxic so no data”. Besides, the lethality in vivo result in data set [10] was “lethality at 5 mg/kg”.
As to `C[C@](O)(Cn1cc(F)cn1)C(=O)Nc1ccc(C(N)=O)nc1` [Compound 21g, (S)-5-(3-(4-Fluoro-1H-pyrazol-1-yl)-2-hydroxy-2-methylpropanamido)picolinamide], in data set [9] (pH 7.5), the half-life at 1 µM is above 6 h.
`C[C@](O)(Cn1ccc(F)n1)C(=O)Nc1ccc(C#N)c(C(F)(F)F)c1` [Compound 16b, (S)—N-(4-Cyano-3-(trifluoromethyl)phenyl)-3-(3-fluoro-1H-pyrazol-1-yl)-2-hydroxy-2-methylpropanamide] had a half-life at 1 µM in [9] (setting [12]) of at least 0.807 h.
For the compound `C[C@](O)(Cn1cc(F)cn1)C(=O)Nc1ccc(C#N)cc1Cl` [Compound 29i, (S)—N-(2-Chloro-4-Cyanophenyl)-3-(4-Fluoro-1H-Pyrazol-l-Yl)-2-Hydroxy-2-Methylpropanamide], the pIC50 at CMV-hAR is 5.91.
